Test results: US20210300900A1, “OGA INHIBITOR COMPOUNDS” (Janssen Pharmaceutica NV, priority 2018, published 2021)

Target: T1, recombinant human Meningioma Expressed Antigen 5 (MGEA5), also referred to as O-GcNAcase (OGA) (Homo sapiens, UniProt O60502)
T1 construct: Full length OGA enzyme was purchased at OnGene (cat #TP322411); purchased OnGene (so in the source)
T1 sequence (O60502 1-916): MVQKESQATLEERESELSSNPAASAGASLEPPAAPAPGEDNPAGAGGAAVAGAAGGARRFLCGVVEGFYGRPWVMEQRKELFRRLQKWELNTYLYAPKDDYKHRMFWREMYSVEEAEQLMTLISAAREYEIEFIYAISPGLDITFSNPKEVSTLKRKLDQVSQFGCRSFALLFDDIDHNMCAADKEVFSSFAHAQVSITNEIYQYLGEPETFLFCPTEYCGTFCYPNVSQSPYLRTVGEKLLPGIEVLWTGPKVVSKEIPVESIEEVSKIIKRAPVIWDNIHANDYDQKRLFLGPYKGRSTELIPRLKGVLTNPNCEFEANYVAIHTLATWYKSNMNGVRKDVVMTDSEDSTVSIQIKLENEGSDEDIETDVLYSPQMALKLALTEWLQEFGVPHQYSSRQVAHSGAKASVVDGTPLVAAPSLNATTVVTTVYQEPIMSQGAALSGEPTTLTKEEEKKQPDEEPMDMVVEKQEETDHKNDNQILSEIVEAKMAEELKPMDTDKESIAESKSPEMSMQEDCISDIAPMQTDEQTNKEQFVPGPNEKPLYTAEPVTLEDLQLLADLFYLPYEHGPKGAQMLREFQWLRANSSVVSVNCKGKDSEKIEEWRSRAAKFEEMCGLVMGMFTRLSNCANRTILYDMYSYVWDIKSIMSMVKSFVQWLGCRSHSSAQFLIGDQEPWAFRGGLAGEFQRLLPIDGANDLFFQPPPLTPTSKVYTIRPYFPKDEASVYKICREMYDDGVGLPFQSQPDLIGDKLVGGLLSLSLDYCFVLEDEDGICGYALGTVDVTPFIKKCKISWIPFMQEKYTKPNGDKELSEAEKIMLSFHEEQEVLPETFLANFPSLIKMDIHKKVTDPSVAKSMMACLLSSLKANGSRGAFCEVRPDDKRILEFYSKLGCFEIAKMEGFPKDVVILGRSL
Experiment: OGA biochemical assay (inhibition of FM-GlcNAc hydrolysis, fluorescence)
Settings: FM-GlcNAc substrate; for Emax: read-out: Enzymatic Emax (%); for IC50: read-out: Enzymatic hOGA, pIC50 (converted)
Excerpt: The assay is based on the inhibition of the hydrolysis of fluorescein mono-β-D-N-Acetyl-Glucosamine (FM-GlcNAc) (Mariappa et al. 2015, Biochem J 470:255) by the recombinant human Meningioma Expressed Antigen 5 (MGEA5), also referred to as O-GcNAcase (OGA). The hydrolysis FM-GlcNAc (Marker Gene technologies, cat #M1485) results in the formation of B-D-N-glucosamineacetate and fluorescein. The fluorescence of the latter can be measured at excitation wavelength 485 nm and emission wavelength 538 nm. An increase in enzyme activity results in an increase in fluorescence signal. Full length OGA enzyme was purchased at OnGene (cat #TP322411). The enzyme was stored in 25 mM Tris.HCl, pH 7.3, 100 mM glycine, 10% glycerol at −20° C. Thiamet G and GlcNAcStatin were tested as reference compounds (Yuzwa et al. 2008 Nature Chemical Biology 4:483; Yuzwa et al. 2012 Nature Chemical Biology 8:393). The assay was performed in 200 mM Citrate/phosphate buffer supplemented with 0.005% Tween-20. 35.6 g Na2HPO4 2H2O (Sigma, #C0759) were dissolved in 1 L water to obtain a 200 mM solution. 19.2 g citric acid (Merck, #1.06580) was dissolved in 1 L water to obtain a 100 mM solution. pH of the sodiumphosphate solution was adjusted with the citric acid solution to 7.2. The buffer to stop the reaction consists of a 500 mM Carbonate buffer, pH 11.0. 734 mg FM-GlcNAc were dissolved in 5.48 mL DMSO to obtain a 250 mM solution and was stored at −20° C. OGA was used at a 2 nM concentration and FM-GlcNAc at a 100 uM final concentration. Dilutions were prepared in assay buffer.
50 nl of a compound dissolved in DMSO was dispensed on Black Proxiplate TM 384 Plus Assay plates (Perkin Elmer, #6008269) and 3 μl fl-OGA enzyme mix added subsequently. Plates were pre-incubated for 60 min at room temperature and then 2 μl FM-GlcNAc substrate mix added. […] Plates were briefly centrifuged for 1 min at 1000 rpm and incubate at room temperature for 6 h. To stop the reaction 5 μl STOP buffer were added and plates centrifuge again 1 min at 1000 rpm. Fluorescence was quantified in the Thermo Scientific Fluoroskan Ascent or the PerkinElmer EnVision with excitation wavelength 485 nm and emission wavelength 538 nm.
For analysis a best-fit curve is fitted by a minimum sum of squares method. From this an IC50 value and Hill coefficient was obtained. High control (no inhibitor) and low control (saturating concentrations of standard inhibitor) were used to define the minimum and maximum values.

COc1cccc(C[C@H]2CCN(C(C)c3cccc(OC)n3)C2)n1 (mixture of isomers) [Product 149]
Emax: 30.3%
IC50: > 10000 nM

COc1ccc(C[C@H]2CCN(C(C)c3cccc(OC)n3)C2)nc1 (mixture of isomers) [Product 150]
Emax: 46%
IC50: > 10000 nM

COc1cccc(C(C)N2CC[C@H](Cc3ncccc3OC)C2)n1 (mixture of isomers) [Product 151]
Emax: 11.8%
IC50: > 10000 nM

CNC(=O)c1nc(C(C)N2CC[C@@H](Cc3cc(C)nc(C)c3)C2)c[nH]1 (mixture of isomers) [Product 163]
Emax: 29%
IC50: > 10000 nM

CCOc1cc(C[C@@H]2CCN(C(C)c3c[nH]c(OCC)n3)C2)ccn1 (mixture of isomers) [Product 164]
Emax: 26%
IC50: > 10000 nM

CCOc1cccc(C(C)N2CCCC(Cc3cc(C)nc(C)c3)C2)n1 (single isomer, unassigned) [Product 50]
Emax: 16%
IC50: > 10000 nM

Cc1cc(C[C@H]2CCCN(C(C)c3nc(OC4CCC4)ccc3F)C2)cc(C)n1 (single isomer, unassigned) [Product 55]
Emax: 97%
IC50: 302 nM

CCNc1cc(CN2CCC[C@H](Cc3cc(C)nc(C)c3)C2)n[nH]1 [Product 2]
Emax: 93%
IC50: 1050 nM

CC(=O)Nc1cc([C@@H](C)N2CCC[C@H](Cc3cc(C)nc(C)c3)C2)n[nH]1 [Product 4]
Enzymatic Emax (%): 100%
Enzymatic hOGA; pIC50: 6.61

CC(=O)N(C)c1cc(CN2CCC[C@H](Cc3cc(C)nc(C)c3)C2)n[nH]1 [Product 10]
Emax: 90%
IC50: 1320 nM

CC(=O)Nc1cc(CN2CCC[C@H](Cc3cc(C)nc(C)c3)C2)n(C)n1 [Product 11]
Emax: 90%
IC50: 1350 nM

CC(=O)Nc1[nH]nc([C@@H](C)N2CCC[C@H](Cc3cc(C)nc(C)c3)C2)c1C [Product 12]
Enzymatic Emax (%): 36%
Enzymatic hOGA; pIC50: <5

CC(=O)Nc1[nH]nc([C@H](C)N2CCC[C@H](Cc3cc(C)nc(C)c3)C2)c1C [Product 13]
Enzymatic Emax (%): 7%
Enzymatic hOGA; pIC50: <5

CCOc1cc([C@@H](C)N2CCC[C@H](Cc3cc(C)nc(C)c3)C2)n[nH]1 [Product 15]
Enzymatic Emax (%): 65%
Enzymatic hOGA; pIC50: 5.27

CCOc1nc(CN2CCC[C@H](Cc3cc(C)nc(C)c3)C2)c(Br)[nH]1 [Product 22]
Emax: 63%
IC50: 6610 nM

Cc1cc(C[C@H]2CCCN(Cc3c[nH]c(C)n3)C2)cc(C)n1 [Product 25]
Emax: 82%
IC50: 3020 nM

CCOc1ncc(CN2CCC[C@H](Cc3cc(C)nc(C)c3)C2)s1 [Product 26]
Emax: 71%
IC50: 4570 nM

CC(=O)Nc1cc(CN2CCC[C@H](Cc3cc(C)nc(C)c3)C2)cs1 [Product 27]
Emax: 89%
IC50: 1050 nM

CC(=O)Nc1ccnc(CN2CCC[C@H](Cc3cc(C)nc(C)c3)C2)c1 [Product 31]
Emax: 63%
IC50: 6460 nM

CC(=O)Nc1ccnc(C(C)N2CCC[C@H](Cc3cc(C)nc(C)c3)C2)c1 (stereo partly drawn) [Product 32]
Emax: 95%
IC50: 490 nM

COc1ccc(F)c([C@@H](C)N2CCC[C@H](Cc3cc(C)nc(C)c3)C2)n1 [Product 41]
Enzymatic Emax (%): 44%
Enzymatic hOGA; pIC50: <5

COc1cccc([C@@H](C)N2CCC[C@H](Cc3cc(C)nc(C)c3)C2)n1 [Product 46]
Enzymatic Emax (%): 12%
Enzymatic hOGA; pIC50: <5

CCOc1cccc([C@@H](C)N2CCC[C@H](Cc3cc(C)nc(C)c3)C2)n1 [Product 51]
Enzymatic Emax (%): 102%
Enzymatic hOGA; pIC50: 7.01

Cc1cc(C[C@H]2CCCN([C@H](C)c3nc(OC4CCC4)ccc3F)C2)cc(C)n1 [Product 54]
Enzymatic Emax (%): 10%
Enzymatic hOGA; pIC50: <5

COc1ccc(C)c([C@@H](C)N2CCC[C@H](Cc3cc(C)nc(C)c3)C2)n1 [Product 57]
Enzymatic Emax (%): 6%
Enzymatic hOGA; pIC50: <5

COc1ccc(C)c([C@H](C)N2CCC[C@H](Cc3cc(C)nc(C)c3)C2)n1 [Product 58]
Enzymatic Emax (%): 96%
Enzymatic hOGA; pIC50: 6.1

Cc1cc(C[C@H]2CCCN([C@@H](C)c3cccc(C4CC4)n3)C2)cc(C)n1 [Product 60]
Enzymatic Emax (%): 88%
Enzymatic hOGA; pIC50: 5.81

CC(=O)Nc1cc(CN2CCC[C@H](Cc3cc(C)nc(C)c3)C2)cnn1 [Product 62]
Emax: 94%
IC50: 513 nM

COc1cc(C[C@H]2CCCN(C(C)c3nc(OC)ccc3F)C2)cc(C)n1 (stereo partly drawn) [Product 69]
Enzymatic Emax (%) (listed as 69): 103%
IC50: 75.9 nM

COc1ccc(F)c(C(C)N2CCC[C@H](Cc3cc(C)nc(C(F)(F)F)c3)C2)n1 (stereo partly drawn) [Product 71]
Emax: 104%
IC50: 89.1 nM

COc1cccc(C(C)N2CCCC(c3cc(C)nc(C)c3)C2)n1 (stereo not drawn) [Product 73]
Emax: 96%
IC50: 741 nM

COc1cc(C2CCCN(C(C)c3cc(NC(C)=O)[nH]n3)C2)cc(C)n1 (stereo not drawn) [Product 75]
Emax: 95%
IC50: 562 nM

COc1cc(OC2CCCN(C(C)c3nc(OC)ccc3F)C2)cc(C)n1 (stereo not drawn) [Product 81]
Emax: 99%
IC50: 562 nM

CC(=O)Nc1cc(C(C)N2CCCC(CNc3cc(C)nc(C)c3)C2)[nH]n1 (stereo not drawn) [Product 83]
Emax: 103%
IC50: 60.3 nM

CC(=O)Nc1cc(C(C)N2CCCC(CNc3cc(C)nc(C)c3)C2)[nH]n1 (stereo not drawn) [Product 87]
IC50: 28.8 nM

COc1cccc([C@@H](C)N2CCC[C@H](CNc3cc(C)nc(C(F)(F)F)c3)C2)n1 [Product 92]
Enzymatic Emax (%): 74%
Enzymatic hOGA; pIC50: 5.31

COc1cccc([C@H](C)N2CCC[C@H](CNc3cc(C)nc(C(F)(F)F)c3)C2)n1 [Product 93]
Enzymatic Emax (%): 29%
Enzymatic hOGA; pIC50: <5

COc1cccc([C@@H](C)N2CCC[C@@H](CNc3cc(C)nc(C(F)(F)F)c3)C2)n1 [Product 94]
Enzymatic Emax (%): 72%
Enzymatic hOGA; pIC50: 5.24

CC(=O)Nc1cc(C(C)N2CC[C@@H](Cc3cc(C)nc(C)c3)C2)n[nH]1 (stereo partly drawn) [Product 97]
Emax: 94%
IC50: 575 nM

CC(=O)Nc1cc(C(C)N2CC[C@@H](Cc3cc(C)nc(C)c3)C2)n[nH]1 (stereo partly drawn) [Product 104]
Enzymatic Emax (%): 82%
IC50: 2820 nM

COc1ccc(F)c([C@H](C)N2CC[C@H](Cc3ncc(F)cc3F)C2)n1 [Product 109]
Emax: 60%
IC50: 7590 nM

CC(=O)Nc1cc(C(C)N2CC[C@H](Cc3ncc(C)nc3C)C2)n[nH]1 (stereo partly drawn) [Product 110]
Emax: 92%
IC50: 813 nM

COc1ccc(F)c(C(C)N2CC[C@H](Cc3ncc(C)nc3C)C2)n1 (stereo partly drawn) [Product 113]
Emax: 74%
IC50: 3890 nM

CC(=O)Nc1cc(CN2CCCC(COc3cc(C)nc(C)c3)C2)n[nH]1 (stereo not drawn) [Product 119]
Emax: 92%
IC50: 1230 nM
